Laboratory results: US10927096B2, “Ester substituted ion channel blockers and methods for use” (Nocion Therapeutics, Inc., priority 2019, dated 2021)

Columns and labels:
NaV1.7 [1] = molecular target: T1, NaV1.7 (Homo sapiens, UniProt Q15858); test: Automated patch clamp (Qube 384), internal block of NaV1.7 in HEK293 cells; type: cell-based; details: compound in internal solution, read-out: NaV1.7 Intracellular Inhibition
T1 construct: expressed in transfected cells; host or cells: HEK293, tetracycline-inducible
T1 sequence (Q15858 whole entry): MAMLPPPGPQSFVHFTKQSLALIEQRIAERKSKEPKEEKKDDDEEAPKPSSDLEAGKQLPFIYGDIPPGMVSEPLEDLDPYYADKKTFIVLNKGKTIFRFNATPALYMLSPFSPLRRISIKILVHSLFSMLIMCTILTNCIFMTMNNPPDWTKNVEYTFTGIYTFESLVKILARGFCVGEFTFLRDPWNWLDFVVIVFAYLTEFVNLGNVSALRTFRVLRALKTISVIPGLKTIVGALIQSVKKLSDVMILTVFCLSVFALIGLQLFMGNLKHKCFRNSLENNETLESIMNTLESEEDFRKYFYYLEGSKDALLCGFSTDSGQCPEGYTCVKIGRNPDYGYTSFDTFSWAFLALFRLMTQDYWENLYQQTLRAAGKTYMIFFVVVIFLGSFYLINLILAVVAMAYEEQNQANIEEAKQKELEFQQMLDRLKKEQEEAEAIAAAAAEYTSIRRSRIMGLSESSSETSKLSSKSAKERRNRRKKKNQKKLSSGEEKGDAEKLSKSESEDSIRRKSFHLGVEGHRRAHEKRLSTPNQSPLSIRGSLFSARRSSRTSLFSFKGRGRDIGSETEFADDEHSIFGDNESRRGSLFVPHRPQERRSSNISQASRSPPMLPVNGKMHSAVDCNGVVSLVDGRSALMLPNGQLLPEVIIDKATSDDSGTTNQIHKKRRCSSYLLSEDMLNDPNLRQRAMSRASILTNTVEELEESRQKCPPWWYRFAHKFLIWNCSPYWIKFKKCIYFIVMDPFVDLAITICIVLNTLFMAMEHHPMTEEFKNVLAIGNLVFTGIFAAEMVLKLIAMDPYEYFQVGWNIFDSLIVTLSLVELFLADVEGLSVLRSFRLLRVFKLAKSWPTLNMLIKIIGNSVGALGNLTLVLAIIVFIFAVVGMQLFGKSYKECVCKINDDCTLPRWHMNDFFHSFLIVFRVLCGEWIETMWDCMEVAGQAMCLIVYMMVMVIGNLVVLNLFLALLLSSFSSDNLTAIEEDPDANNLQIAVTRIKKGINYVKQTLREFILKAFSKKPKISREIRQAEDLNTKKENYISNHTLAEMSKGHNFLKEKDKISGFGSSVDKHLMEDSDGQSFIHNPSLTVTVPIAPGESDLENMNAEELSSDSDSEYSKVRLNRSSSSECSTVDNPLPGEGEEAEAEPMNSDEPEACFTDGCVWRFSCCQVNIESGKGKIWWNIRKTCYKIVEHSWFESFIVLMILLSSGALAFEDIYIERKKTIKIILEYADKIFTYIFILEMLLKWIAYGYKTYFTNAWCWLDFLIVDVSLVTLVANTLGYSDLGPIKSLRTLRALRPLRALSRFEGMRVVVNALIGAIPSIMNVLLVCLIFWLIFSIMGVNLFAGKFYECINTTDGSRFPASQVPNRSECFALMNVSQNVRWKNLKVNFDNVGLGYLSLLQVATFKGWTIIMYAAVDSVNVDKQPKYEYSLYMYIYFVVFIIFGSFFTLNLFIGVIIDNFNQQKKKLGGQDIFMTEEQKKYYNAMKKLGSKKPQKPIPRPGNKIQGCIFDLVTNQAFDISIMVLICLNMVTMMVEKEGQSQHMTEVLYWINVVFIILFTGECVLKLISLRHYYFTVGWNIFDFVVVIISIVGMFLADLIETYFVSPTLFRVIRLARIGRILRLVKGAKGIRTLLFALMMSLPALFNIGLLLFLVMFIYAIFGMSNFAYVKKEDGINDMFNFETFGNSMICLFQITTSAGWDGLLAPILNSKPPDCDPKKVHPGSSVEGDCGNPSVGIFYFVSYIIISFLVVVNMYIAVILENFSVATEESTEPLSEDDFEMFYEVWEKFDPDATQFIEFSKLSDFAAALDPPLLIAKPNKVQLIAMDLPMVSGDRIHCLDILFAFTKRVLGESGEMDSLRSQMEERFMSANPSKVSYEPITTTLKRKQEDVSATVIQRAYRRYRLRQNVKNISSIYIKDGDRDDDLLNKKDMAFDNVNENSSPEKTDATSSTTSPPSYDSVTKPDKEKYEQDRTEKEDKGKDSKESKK
Procedure: (§1) NaV1.7 was expressed in HEK293 cells upon induction with tetracycline. Cells were cultured in DMEM containing 10% dialyzed Fetal Bovine Serum (VWR, Radnor, Pa.), 1% Glutamax (VWR, Radnor, Pa.), 1% Penicillin-Streptomycin (VWR, Radnor, Pa.), 100 mg/L Hygromycin (Thermo Fisher Scientific, Waltham, Mass. and 5 mg/L Blasticidin (Alfa Aesar, Haverhill, Mass.). Cells were grown and maintained at 37° C. in a humidified environment containing 10% CO2 in air. Cells were detached from the culture flask for passage and harvested using 0.05% Trypsin-EDTA (Thermo Fisher Scientific, Waltham, Mass.). To induce NaV1.7, cells were induced with tetracycline (0.1-1 μg/mL, IBI Scientific, Peosta, Iowa) the day before recording.
(§2) Before experiments, cells were washed with DPBS (VWR, Radnor, Pa.), digested with Detachin (VWR Radnor, Pa.) and then triturated 10 times in CHO Serum-Free Media (VWR Radnor, Pa.) to resuspend the cells and to break apart cell aggregates. Cells were counted and the final concentration was set at 2-5 million cells per mL.
(§3) The intracellular solution contained the following: 140 mM CsF, 1 mM/5 mM EGTA/CsOH, 10 mM HEPES, 10 mM NaCl, adjusted to pH 7.3 with CsOH, and osmolality to 320 with sucrose. The external solution contained the following: 145 mM NaCl, 4 mM KCl, 1 mM MgCl2, 2 mM CaCl2, 10 mM HEPES, 10 mM Glucose, adjusted to pH 7.4 with CsOH and osmolality to 305 with sucrose. All chemicals are from Sigma-Aldrich, St. Louis, Mo. In order to test the degree of internal block by test compounds, the compounds were dissolved in internal solution at the indicated test concentration. […] In order to test the degree of external block by test compounds the compounds were dissolved in external solution at the indicated test concentration.
(§4) Automated Patch Clamps were performed on Qube 384 (Sophion Bioscience, Woburn Mass.) with multihole Qchips at a temperature setting of 22 degrees. The whole cells configuration was formed with default Qube seal and break-in parameter. The membrane potential was held at −100 mV before the voltage protocol began. Two voltage protocols were followed.
(§5) Step 1: Cells were held at −100 mV with a depolarized pulse to −20 mV for 10 ms, the interval was set at 5 s. Currents were corrected by default leak subtraction from every pulse. The duration was set at 5 mins.
(§6) Step 2: Cells were held at −100 mV with a depolarized pulse to −20 mV for 10 ms. The frequency was 5 Hz. Currents were corrected by leak subtraction calculated before step 2. The duration was set at 4 mins.
After Step 2, the Qchip was removed from the recording chamber. The internal solution was changed with solutions containing test compounds. Qchips were held at −100 mV without pulsing after being replaced in the recording chamber. The total solution switching time was 8 minutes. After the internal solution exchange, Cells were recorded and step 2 for repeated for 10 minutes.
Data analysis was performed by Sophion Analyzer. Cells were filtered with minimum 50 MOhm seal resistance and minimum 5 nA starting current. The rundown of the currents was corrected with control cells (Non-Drug). The remaining was calculated by averaging last 3 points in the end of experiments. The base line was calculated as the average of last 3 points of Step 2. IC50 curves were plotted with DR-plots/Hill function (a dose-response plot with a Hill fit).
Representative examples of the invention were tested for intracellular inhibition of NaV 1.7 in the automated patch clamp assay. Activity Range is reported as IC50: “++++” (<1 μM), “+++” (1-3 μM), “++” (3-10 μM) or “+” (10-30 μM).

NaV1.7 [2] = molecular target: T1, NaV1.7; test: Automated patch clamp (Qube 384), external block of NaV1.7 in HEK293 cells; type: cell-based; details: compound in external solution, read-out: NaV1.7 Extracellular Inhibition
Procedure: as §1, §2, §3, §4, §5, §6
After Step 2, the external solution was changed with solutions containing test compounds. Qchips were held at −100 mV without pulsing. The total solution switching time was 8 minutes. After the external solution exchange, cells were recorded using the same procedure as step 2 for 10 minutes.
Data analysis was performed by Sophion Analyzer. Data were corrected with control cells (Non-Drug). The IC50 data were plotted with DR-plots/Hill function (a dose-response plot with a Hill fit).
Representative examples of the invention were tested for extracellular inhibition of NaV 1.7 in the automated patch clamp assay. Activity Range is reported as IC50: “++++” (<1 μM), “+++” (1-10 μM), “++” (10-30 μM) or “+” (>30 μM).

Structure (SMILES)	IC50 (NaV1.7 [1]) [nM]	IC50 (NaV1.7 [2]) [nM]
CCCOC(=O)c1cccc(C)c1NC(=O)C[N+]1(Cc2ccccc2)CCCCCC1.[Br-] [Compound 6]	1000 to 3000	–
CCNC(=O)C1CCC[N+](CC(=O)Nc2c(C)cccc2C(=O)OC)(Cc2ccccc2)C1.O=C([O-])C(F)(F)F (stereo not drawn) [Compound 33]	< 1000	–
COC(=O)c1cccc(C)c1NC(=O)C[N+]1(Cc2ccccc2)CCCC(C(N)=O)C1.[Br-] (stereo not drawn) [Compound 30]	< 1000	> 30000
COC(=O)c1cccc(C)c1NC(=O)C[N+]1(Cc2ccccc2)CCCC1 [Compound 5]	1000 to 3000	> 30000
CNC(=O)C1CCC[N+](CC(=O)Nc2c(C)cccc2C(=O)OC)(Cc2ccccc2)C1 (mixture of isomers) [Compound 31]	< 1000	> 30000
CCOC(=O)c1cccc(C)c1NC(=O)C[N+]1(Cc2ccccc2)CCCCCC1 [Compound 2]	< 1000	1000 to 10000
COC(=O)c1cccc(C)c1NC(=O)C[N+]1(Cc2ccccc2)CCCC(C(=O)NCC(C)C)C1.[Br-] (stereo not drawn) [Compound 36]	1000 to 3000	10000 to 30000
CCCOC(=O)C1CCC[N+](CC)(CC(=O)Nc2c(C)cccc2C(=O)OC)C1.[I-] (stereo not drawn) [Compound 26]	1000 to 3000	–
COC(=O)c1cccc(C)c1NC(=O)C[N+]1(Cc2ccccc2)CCCCCC1 [Compound 1]	< 1000	1000 to 10000
CCCCOC(=O)C1CCC[N+](CC)(CC(=O)Nc2c(C)cccc2C(=O)OC)C1.[I-] (mixture of isomers) [Compound 15]	1000 to 3000	–
CCOC(=O)c1cccc(C)c1NC(=O)C[N+]1(Cc2ccccc2)CCCC1.[Br-] [Compound 9]	< 1000	1000 to 10000
COC(=O)c1cccc(C)c1NC(=O)C[N+]1(Cc2ccccc2)CCCC(C(=O)N(C)C)C1 (mixture of isomers) [Compound 40]	< 1000	–
COC(=O)c1cccc(C)c1NC(=O)C[N+]1(Cc2ccccc2)CCCC(C(=O)N2CCCCCC2)C1.[Br-] (stereo not drawn) [Compound 34]	1000 to 3000	–
CCCCOC(=O)C1CCC[N+](CC(=O)Nc2c(C)cccc2C(=O)OC)(Cc2ccccc2)C1.[Br-] (mixture of isomers) [Compound 14]	1000 to 3000	–
Cc1cccc(C(=O)OC(C)C)c1NC(=O)C[N+]1(Cc2ccccc2)CCCCCC1.[Br-] [Compound 7]	< 1000	1000 to 10000
CCCNC(=O)C1CCC[N+](CC(=O)Nc2c(C)cccc2C(=O)OC)(Cc2ccccc2)C1 (mixture of isomers) [Compound 28]	< 1000	10000 to 30000
CC[N+]1(CC(=O)Nc2c(C)cccc2C(=O)OC)CCCC(C(=O)OCC(C)C)C1.[I-] (stereo not drawn) [Compound 23]	< 1000	> 30000
CC[N+]1(CC(=O)Nc2c(C)cccc2C(=O)OC)CCCC(C(=O)OC2CCCCC2)C1 (mixture of isomers) [Compound 27]	1000 to 3000	–
CCOC(=O)c1cccc(C)c1NC(=O)C[N+]1(Cc2ccccc2)CCCCC1.[Br-] [Compound 4]	< 1000	1000 to 10000
COC(=O)c1cccc(C)c1NC(=O)C[N+]1(Cc2ccccc2)CCCCC1.[Br-] [Compound 3]	1000 to 3000	> 30000
COC(=O)c1cccc(C)c1NC(=O)C[N+]1(Cc2ccccc2)CCCC(C(=O)NC(C)C)C1.[Br-] (stereo not drawn) [Compound 32]	< 1000	> 30000
CCOC(=O)C1CCC[N+](CC(=O)Nc2c(C)cccc2C(=O)OC)(Cc2ccccc2)C1 (mixture of isomers) [Compound 16]	< 1000	1000 to 10000

Results, then the compound that gave them:

IC50 (NaV1.7 [1]) [nM]	IC50 (NaV1.7 [2]) [nM]	Structure (SMILES)
1000 to 3000	–	CCN(CC)C(=O)C[N+]1(CC(=O)Nc2c(C)cccc2C(=O)OC)CCCC(c2ccccc2)C1 (mixture of isomers) [Compound 62]
1000 to 3000	–	CC[N+]1(CC(=O)Nc2c(C)cccc2C(=O)OC)CCCC(C(=O)NC2CCCCC2)C1.[I-] (stereo not drawn) [Compound 56]
< 1000	10000 to 30000	CC[N+]1(CC(=O)Nc2c(C)cccc2C(=O)OC)CCCC(c2ccccc2)C1 (mixture of isomers) [Compound 65]
< 1000	–	COC(=O)c1cccc(C)c1NC(=O)C[N+]1(CC(N)=O)CCCC(c2ccccc2)C1 (mixture of isomers) [Compound 61]
1000 to 3000	–	COC(=O)c1cccc(C)c1NC(=O)C[N+]1(Cc2ccccc2)CCCC(C(=O)NC2CCCC2)C1.[Br-] (stereo not drawn) [Compound 41]
1000 to 3000	–	CC[N+]1(CC(=O)Nc2c(C)cccc2C(=O)OC)CCCC(C(=O)N2CCCC2)C1 (mixture of isomers) [Compound 54]
< 1000	10000 to 30000	COC(=O)c1cccc(C)c1NC(=O)C[n+]1cccc(-c2ccccc2)c1.[Br-] [Compound 66]
< 1000	–	CNC(=O)C[N+]1(CC(=O)Nc2c(C)cccc2C(=O)OC)CCCC(c2ccccc2)C1.[Br-] (mixture of isomers) [Compound 59]
< 1000	1000 to 10000	CCOC(=O)C[N+]1(CC(=O)Nc2c(C)cccc2C(=O)OC)CCCC(c2ccccc2)C1.O=C([O-])C(F)(F)F (stereo not drawn) [Compound 63]
< 1000	–	CCOC(=O)c1cccc(C)c1NC(=O)C[n+]1cccc(-c2ccccc2)c1 [Compound 67]
< 1000	> 30000	CC[N+]1(CC(=O)Nc2c(C)cccc2C(=O)OC)CCCC(C(=O)N2CCCCC2)C1.[I-] (stereo not drawn) [Compound 45]
< 1000	> 30000	COC(=O)c1cccc(C)c1NC(=O)C[n+]1cccn1C1CCCCC1.[Br-] [Compound 69]
1000 to 3000	1000 to 10000	Cc1cccc(C(=O)OC(C)(C)C)c1NC(=O)C[n+]1cccn1C1CCCCC1.[Br-] [Compound 72]
< 1000	–	COC(=O)c1cccc(C)c1NC(=O)C[N+]1(CC(=O)N(C)C)CCCC(c2ccccc2)C1.O=C([O-])C(F)(F)F (stereo not drawn) [Compound 60]
< 1000	–	COC(=O)C[N+]1(CC(=O)Nc2c(C)cccc2C(=O)OC)CCCC(c2ccccc2)C1 (mixture of isomers) [Compound 64]
1000 to 3000	> 30000	CCC(C(=O)Nc1c(C)cccc1C(=O)OC)[N+]1(Cc2ccccc2)CCCCC1 (stereo not drawn) [Compound 57]
3000 to 10000	–	CC[N+]1(CC(=O)Nc2c(C)cccc2C(=O)OC)CCCC(C(=O)NC)C1.[I-] (stereo not drawn) [Compound 46]
3000 to 10000	> 30000	CC[N+]1(CC(=O)Nc2c(C)cccc2C(=O)OC)CCCC(C(N)=O)C1.[I-] (stereo not drawn) [Compound 55]
1000 to 3000	1000 to 10000	Cc1cccc(C(=O)OC(C)(C)C)c1NC(=O)C[n+]1cccc(-c2ccccc2)c1.[Br-] [Compound 71]
3000 to 10000	–	CCc1cccc(C[N+]2(C(CC)C(=O)Nc3c(C)cccc3C(=O)OC)CCCCC2)c1.O=C[O-] (stereo not drawn) [Compound 58]
1000 to 3000	–	COC(=O)c1cccc(C)c1NC(=O)C[N+]1(Cc2ccccc2)CCCC(C(=O)N2CCCC2)C1 (mixture of isomers) [Compound 43]
